From PubChem BioAssay (NCI)
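Method: 48-hour compound exposure of cells in 96-well plates, five concentrations, linear interpolation of endpoints. GI50: concentration for 50% inhibition of growth. TGI is the concentration that stops growth completely.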

Assays:
Test in all cases: NCI tumour cell line growth inhibition, 48 h
[1] = tested on: A498 renal
[2] = tested on: HL-60(TB) leukemia
[3] = tested on: HOP-92 NSCLC
[4] = tested on: HS 578T breast
[5] = tested on: MOLT-4 leukemia
[6] = tested on: NCI-H522 lung
[7] = tested on: OVCAR-5 ovarian
[8] = tested on: SK-OV-3 ovarian
[9] = tested on: SN12C renal
[10] = tested on: HT29 colon

SMILES: c1ccc2c(c1)c(NCCCCN1CCCCC1)cc1c3ccccc3c(NCCCCN3CCCCC3)cc21
- GI50 [1]: 13.6 µM
- TGI [1]: 32.9 µM
- GI50 [2]: 19.7 µM
- TGI [2]: > 100 µM
- GI50 [3]: 20.4 µM
- TGI [3]: 52.7 µM
- GI50 [4]: 27.5 µM
- TGI [4]: 68.6 µM
- GI50 [5]: 6.96 µM
- TGI [5]: > 100 µM
- GI50 [6]: 66.2 µM
- TGI [6]: > 100 µM
- GI50 [7]: 24.3 µM
- TGI [7]: 48.9 µM
- GI50 [8]: 18.3 µM
- TGI [8]: 48.1 µM
- GI50 [9]: 17.2 µM
- TGI [9]: 35.4 µM

SMILES: CN(C)c1ccc2c(c1)Sc1cc(N(C)C)ccc1N2C(=O)c1ccccc1
- GI50 [1]: 32.3 µM
- TGI [1]: > 100 µM
- GI50 [2]: 4.5 µM
- TGI [2]: > 100 µM
- GI50 [3]: 5.04 µM
- TGI [3]: 89.9 µM
- GI50 [4]: 10.8 µM
- TGI [4]: 57.4 µM
- GI50 [5]: 38.1 µM
- TGI [5]: > 100 µM
- GI50 [7]: > 100 µM
- TGI [7]: > 100 µM
- GI50 [8]: 54.8 µM
- TGI [8]: > 100 µM
- GI50 [9]: > 100 µM
- TGI [9]: > 100 µM

SMILES: O=C(/C(=C/c1ccc([N+](=O)[O-])cc1)c1ccccc1)c1ccccc1
- GI50 [1]: 1.98 µM
- TGI [1]: 8.86 µM
- GI50 [2]: 2.29 µM
- TGI [2]: 5.71 µM
- GI50 [3]: 2.22 µM
- TGI [3]: 6.98 µM
- GI50 [4]: 2.74 µM
- TGI [4]: > 100 µM
- GI50 [10]: 3.33 µM
- TGI [10]: > 100 µM
- GI50 [7]: 4.91 µM
- TGI [7]: > 100 µM
- GI50 [8]: 4.19 µM
- TGI [8]: > 100 µM

SMILES: COc1ccc(C(OCC2OC(n3ccc(NC(=O)c4ccccc4)nc3=O)C(O)C2O)(c2ccccc2)c2ccccc2)cc1 (configuration not stated)
- TGI [1]: 2.97 µM
- TGI [2]: 4.36 µM
- TGI [4]: 4.86 µM
- TGI [10]: 3.04 µM
- TGI [5]: 4.17 µM
- TGI [6]: 5.61 µM
- TGI [7]: 3.79 µM
- TGI [8]: 20.6 µM
- TGI [9]: 3.2 µM

SMILES: CCN(C(=O)N1CCN(c2cc3c(cc2F)c(=O)c(C(=O)O)cn3C2CC2)CC1)c1nc(-c2ccc(C)cc2)cs1
- TGI [1]: 0.486 µM
- GI50 [3]: 0.708 µM
- TGI [3]: 2.8 µM
- GI50 [4]: 0.46 µM
- TGI [4]: 4.28 µM
- GI50 [10]: 0.332 µM
- TGI [10]: > 100 µM
- GI50 [5]: 0.469 µM
- TGI [5]: > 100 µM
- GI50 [6]: 1.02 µM
- GI50 [7]: 0.68 µM
- TGI [7]: > 100 µM
- GI50 [8]: 1.53 µM
- TGI [8]: 19.4 µM
- GI50 [9]: 0.365 µM
- TGI [9]: > 100 µM

SMILES: Clc1cc(Cl)c(OCC#CI)cc1Cl
- GI50 [1]: 13.7 µM
- TGI [1]: 26.6 µM
- GI50 [2]: 2 µM
- TGI [2]: 5.22 µM
- GI50 [3]: 15.1 µM
- TGI [3]: 37.1 µM
- GI50 [4]: 16.9 µM
- TGI [4]: 50.4 µM
- GI50 [10]: 2.1 µM
- TGI [10]: 5.66 µM
- GI50 [5]: 2.05 µM
- TGI [5]: 6.11 µM
- GI50 [6]: 1.53 µM
- TGI [6]: 3.7 µM
- GI50 [7]: 13.7 µM
- TGI [7]: 27.2 µM
- GI50 [9]: 10.1 µM
- TGI [9]: 23 µM

SMILES: N#Cc1c(N/N=C/c2c(Cl)cccc2Cl)nc(N)nc1N1CCOCC1
- GI50 [1]: 2.67 µM
- TGI [1]: 15.5 µM
- GI50 [3]: 12.4 µM
- TGI [3]: > 100 µM
- GI50 [4]: 13.3 µM
- TGI [4]: 82.1 µM
- GI50 [10]: 19.4 µM
- TGI [10]: > 100 µM
- GI50 [5]: 4.08 µM
- TGI [5]: 40.6 µM
- GI50 [6]: 4.35 µM
- TGI [6]: 27.3 µM
- GI50 [7]: 43.4 µM
- TGI [7]: > 100 µM
- GI50 [8]: 20.2 µM
- TGI [8]: > 100 µM
- GI50 [9]: 16.8 µM
- TGI [9]: 85.7 µM

SMILES: O=c1[nH]c2ccccc2nc1-c1c[nH]c2ccccc12
- GI50 [1]: 7.4 µM
- TGI [1]: > 100 µM
- GI50 [2]: > 100 µM
- TGI [2]: > 100 µM
- GI50 [4]: 6.83 µM
- TGI [4]: > 100 µM
- GI50 [10]: > 100 µM
- TGI [10]: > 100 µM
- GI50 [5]: > 100 µM
- TGI [5]: > 100 µM
- GI50 [6]: > 100 µM
- TGI [6]: > 100 µM
- GI50 [7]: > 100 µM
- TGI [7]: > 100 µM
- GI50 [8]: > 100 µM
- TGI [8]: > 100 µM
- GI50 [9]: > 100 µM
- TGI [9]: > 100 µM

SMILES: COc1cc2nc(N3CCCC3)nc(NCC3CCCCC3)c2cc1OC
- GI50 [1]: 1.11 µM
- TGI [1]: 2.47 µM
- GI50 [2]: 0.505 µM
- TGI [2]: 2.21 µM
- GI50 [3]: 1.11 µM
- TGI [3]: 2.46 µM
- GI50 [4]: 1.79 µM
- TGI [4]: 3.71 µM
- GI50 [10]: 0.435 µM
- TGI [10]: 1.69 µM
- GI50 [6]: 1.56 µM
- TGI [6]: 3.29 µM
- GI50 [7]: 1.59 µM
- TGI [7]: 2.96 µM
- GI50 [8]: 1.75 µM
- TGI [8]: 3.24 µM
- GI50 [9]: 1.48 µM
- TGI [9]: 2.91 µM

SMILES: O=C(O)C/C=C/CC(=O)O
- TGI [1]: > 100 µM
- TGI [2]: > 100 µM
- TGI [4]: > 100 µM
- TGI [10]: > 100 µM
- TGI [5]: > 100 µM
- TGI [6]: > 100 µM
- TGI [7]: > 100 µM
- TGI [8]: > 100 µM
- TGI [9]: > 100 µM

SMILES: COc1cccc(NC(=O)c2sc3nc4c(cc3c2N)CN(Cc2ccccc2)CC4)c1
- GI50 [1]: 3.82 µM
- TGI [1]: 24.4 µM
- GI50 [3]: 2.21 µM
- TGI [3]: 24.1 µM
- GI50 [4]: 2.14 µM
- TGI [4]: 23 µM
- GI50 [10]: 3.75 µM
- TGI [10]: 15.2 µM
- GI50 [5]: 21.9 µM
- TGI [5]: > 100 µM
- GI50 [6]: 15.1 µM
- TGI [6]: > 100 µM
- GI50 [7]: 36.9 µM
- TGI [7]: > 100 µM
- GI50 [8]: 2.78 µM
- TGI [8]: 14 µM
- GI50 [9]: 11.2 µM
- TGI [9]: > 100 µM
